Results published in ChEMBL document CHEMBL1159194, “Two pimarane diterpenoids from Ephemerantha lonchophylla and their evaluation as modulators of the multidrug resistance phenotype” (J Nat Prod, 1998).
The source made the active and inactive calls. No cut-off for these calls is given here.

Experiments:
[1] = target: ATP-dependent translocase ABCB1 (Homo sapiens, UniProt P08183); experiment: Inhibition of human MDR1 expressed in mouse B16/F10 cells assessed as increase in doxorubicin accumulation by fluorimetry; assay type: cell-based; settings: read-out: ED50 (the source's name)
B16-F10 = experiment: Effect on doxorubicin accumulation in mouse B16/F10 cells by fluorimetry; assay type: functional, cell-based

Sequence of ATP-dependent translocase ABCB1 (P08183 whole entry): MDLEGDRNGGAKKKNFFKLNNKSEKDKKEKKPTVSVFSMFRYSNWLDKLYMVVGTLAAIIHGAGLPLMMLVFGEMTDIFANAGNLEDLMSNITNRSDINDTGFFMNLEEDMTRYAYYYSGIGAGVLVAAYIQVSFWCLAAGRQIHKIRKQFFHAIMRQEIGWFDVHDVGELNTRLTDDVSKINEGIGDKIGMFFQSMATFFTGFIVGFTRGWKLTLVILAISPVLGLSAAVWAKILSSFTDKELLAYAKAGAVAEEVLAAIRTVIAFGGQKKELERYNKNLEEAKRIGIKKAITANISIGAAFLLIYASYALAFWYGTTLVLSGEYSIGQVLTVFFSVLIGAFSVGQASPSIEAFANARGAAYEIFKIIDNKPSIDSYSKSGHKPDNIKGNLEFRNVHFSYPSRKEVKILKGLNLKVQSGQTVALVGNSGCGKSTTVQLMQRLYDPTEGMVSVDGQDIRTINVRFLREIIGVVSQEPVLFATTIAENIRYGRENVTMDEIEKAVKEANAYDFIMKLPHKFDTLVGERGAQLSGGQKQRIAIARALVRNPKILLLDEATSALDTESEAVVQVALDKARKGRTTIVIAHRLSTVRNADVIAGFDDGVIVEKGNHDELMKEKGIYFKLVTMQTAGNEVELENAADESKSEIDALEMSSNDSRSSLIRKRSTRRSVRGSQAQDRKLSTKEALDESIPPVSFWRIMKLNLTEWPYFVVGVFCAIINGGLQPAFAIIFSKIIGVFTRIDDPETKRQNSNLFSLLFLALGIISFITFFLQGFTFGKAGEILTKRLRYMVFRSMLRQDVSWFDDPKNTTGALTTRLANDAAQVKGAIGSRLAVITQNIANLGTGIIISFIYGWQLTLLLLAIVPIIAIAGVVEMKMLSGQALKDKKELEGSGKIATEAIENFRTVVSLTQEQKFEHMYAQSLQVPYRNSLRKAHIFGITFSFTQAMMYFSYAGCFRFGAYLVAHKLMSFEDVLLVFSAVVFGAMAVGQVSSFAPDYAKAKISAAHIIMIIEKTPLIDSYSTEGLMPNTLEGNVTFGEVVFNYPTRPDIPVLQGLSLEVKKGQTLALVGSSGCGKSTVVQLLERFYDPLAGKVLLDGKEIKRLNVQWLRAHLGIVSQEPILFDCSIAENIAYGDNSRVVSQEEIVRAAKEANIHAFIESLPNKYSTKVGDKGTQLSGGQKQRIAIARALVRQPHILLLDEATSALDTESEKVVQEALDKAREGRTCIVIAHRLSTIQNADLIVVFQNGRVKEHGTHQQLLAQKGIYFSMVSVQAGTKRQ

Row | EC50 [1] [µM] | Structure (SMILES) | Activity (B16-F10)
1 | 193 | CC1(C)C(=O)C(O)=C[C@]2(C)[C@H]3CC[C@@](C)(C(=O)CO)C=C3CC[C@@H]12 [LONCHOPHYLLOID A] | inactive
2 | 195 | CC1(C)[C@@H](O)CC[C@]2(C)[C@H]3CC[C@@](C)(C(=O)CO)C=C3CC[C@@H]12 [LONCHOPHYLLOID B] | inactive
